According to the NIST ThermoML archive (doi:10.1016/j.jct.2004.07.010):
± gives the expanded uncertainty stated by the source.

Experiments:
[1] = refractive index (Na D-line) (dimensionless); settings: 293.15 K; 101.33 kPa; Liquid; Standard Abbe refractometry
[2] = 298.15 K, 101.33 kPa, Liquid

Row | Structure (SMILES) | refractive index [1] | mass density [2] | mass density ([2]; Vibrating tube method)
1 | c1ccccc1 [benzene] | 1.5009 ± 0.0007 | 873.56 ± 0.35 kg/m3 | 
2 | Cc1ccccc1 [toluene] | 1.4965 ± 0.0008 | 862.14 ± 0.94 kg/m3 | 

Further lines, results first:

Row | refractive index [1] | mass density [2] | mass density ([2]; Vibrating tube method) | Structure (SMILES)
3 | 1.4507 ± 0.0007 |  | 941.7 ± 0.11 kg/m3 | O=C1CCCCC1 [cyclohexanone]
4 | 1.4962 ± 0.0008 |  | 862.44 ± 0.55 kg/m3 | CCc1ccccc1 [ethylbenzene]
5 | 1.546 ± 0.0007 | 901.51 ± 0.31 kg/m3 |  | C=Cc1ccccc1 [styrene]
